Patent publication US5616613A, “Platinum(II) complex and malignant tumor treatment agent” (priority 1994, dated 1997)

How the values were obtained:
mouse leukemia L1210 = test: Antitumor activity against L1210 cell-planted mice (T/C value); type: in vivo; settings: intraperitoneal, CDF1 mice
Method: A portion of 1×10^5 mouse leukemia L1210 cells subcultured in DBA/2 mice were transplanted in the abdominal cavities of CDF1 mice (male, 6 weeks old, 6-10 animals/group). Each of the test compounds was intraperitoneally administered to the mice on the 1st, […] and 9th days after the day of transplantation. Each of the preparations was used after being dissolved in distilled water.
The antitumor activity of the platinum complexes against the L1210 cell-planted mice was evaluated based on the T/C value determined by the following equation. [formula]

testicular carcinoma = settings: cited from earlier work; for effectiveness against testicular carcinoma and the like (in words): in vivo
[1] = system: cisplatin-resistant L1210 cells; test: In vitro cytotoxic effect on cisplatin-resistant mouse leukemia L1210 cells (XTT colorimetric method); type: cell-based; settings: read-out: 50% cell growth inhibition concentration (IC50), 37° C., 5 days
Method: A test of the in vitro cytotoxic effect of compound 15 and cisplatin on cisplatin-resistant mouse leukemia L1210 cells was conducted in the following manner.
1×10^5 cisplatin-resistant L1210 cells were seeded in a 96-well plate at 100 μl per well. About 100 μl of the drugs at graded dilutions was added to each well. Culturing was then performed at 37° C. for 5 days, and the cells were counted by the XTT colorimetric method.

[2] = prior-art complexes; cited from earlier work

SMILES	T/C (mouse leukemia L1210; 0.25 mg/kg)	T/C (mouse leukemia L1210; 0.5 mg/kg)	T/C (mouse leukemia L1210; 1 mg/kg)	T/C (mouse leukemia L1210; 2 mg/kg)	T/C (mouse leukemia L1210; 4 mg/kg)	effectiveness against testicular carcinoma and the like (in words) (testicular carcinoma)	potency when readministered to recurrent patients (in words) (testicular carcinoma)	IC50 [1]	stability in aqueous solutions (in words) [2]
N.N.[Cl][Pt][Cl] [Cisplatin, cis-diamminedichloroplatinum(II) complex]	101%	101%	106%	123%	160%	very effective	lowered potency	10.7 nM	
N.N.O=C([O-])C1(C(=O)[O-])CCC1.[Pt+2] [carboplatin]						very effective	lowered potency		
O=C(O)c1ccc(C(=O)O)c(C(=O)O)c1 [trimellitic acid]									poor stability
